Data from patent US9481630B2, “Ingenane-type diterpene compound, and pharmaceutical composition for treating or preventing viral infectious diseases containing same” (priority 2011, dated 2016).

System: NK92 cells
Experiment: IFN-γ production in NK92 cells, released IFN-γ in culture supernatant by ELISA
Assay type: cell-based, human
Conditions: for effect on IFN-γ production: 10 nM, similar to the same dose of PMA (positive control)
Procedure: NK92 cells (human NK lymphoma) were obtained from American Type Culture Collection. NK92 cells were kept in α-MEM (Invitrogen, US) containing 20% fetal bovine serum (Invitrogen), 2 mM […], […] (Invitrogen), and were replenished with 100 U/mL IL-2 (Peprotech, US). NK92 cell culture was carried out in a culture medium at 37° C. under 5% CO2 humidity atmosphere. The amount of human IFN-γ was analyzed according to the protocol of a supplier using an assay kit (Endogen, Woburn, US).
In order to detect IFN-γ, 2×10^5 NK92 cell/mL was inoculated in a 48-well culture plate, and was cultured for 12 hours with each isolated compounds in an α-MEM medium containing 20% FBS and IL-2. The IFN-γ released in the culture supernatant was analyzed using an ELISA method. The absorbance was measured on a microplate reader and the treatment and the analysis for all the compounds were repeated twice. The cell toxicity of the compound-treated NK92 cells was evaluated through an MTT analysis.

| Molecule | effect on IFN-γ production | activity for inducing IFN-γ production (5 μM) | further results |
| --- | --- | --- | --- |
| CCCCCCCCCCCC(=O)O[C@@]12C[C@@H](C)[C@]34C=C(C)[C@H](O)[C@@]3(O)[C@H](OC(=O)C(C)C(C)C)C(C)=C[C@H](C4=O)C1C2(C)C (stereo partly drawn) [Compound 1, 5-O-(2,3-dimethylbutanoyl)-13-O-dodecanoyl-20-O-deoxyingenol] | – | – | activity for inducing IFN-γ production (1.25 μM): had activity for inducing IFN-γ production |
| CCCCCCCCCC(=O)OCC1=C[C@@H]2C(=O)[C@]3(C=C(C)[C@H](O)[C@@]3(O)[C@@H]1O)[C@H](C)C[C@@H]1[C@H]2C1(C)C [Compound 3, 20-O-decanoylingenol] | – | – | activity for inducing IFN-γ production (100 nM): had activity for inducing IFN-γ production |
| CCCCC/C=C\C=C\C(=O)O[C@H]1C(C)=C[C@]23C(=O)[C@@H](C=C(COC(C)=O)[C@@H](O)[C@]12O)[C@H]1[C@@H](C[C@H]3C)C1(C)C [Compound 4, 20-O-acetylingenol-3-O-(2′E,4′Z) decadienate] | significant effects on the IFN-γ production | – | – |
| CCCCCCCCCCCC(=O)O[C@@]12C[C@@H](C)[C@]34C=C(C)[C@H](OC(=O)C(C)C(C)C)[C@@]3(O)[C@H](O)C(CO)=C[C@H](C4=O)[C@@H]1C2(C)C (stereo partly drawn) [Compound 6, 3-O-(2,3-dimethylbutanoyl)-13-O-dodecanoylingenol] | significant effects on the IFN-γ production | – | – |
| C[C@H](C/C=C/C(C)(C)O)[C@@H]1CC[C@]2(C)C3=C(CC[C@@]12C)[C@@]1(C)CC[C@H](O)C(C)(C)C1CC3 (stereo partly drawn) [Compound 8, (20R,23E)-eupha-8,23-diene-3b,25-diol] | – | had activity for inducing IFN-γ production | – |
| gansuiphorin A [Compound 5] | – | had activity for inducing IFN-γ production | – |
